Source: patent US20060148858A1, “1, 2-Azole derivatives with hypoglycemic and hypolipidemic activity” (priority 2002, published 2006)
Like-named read-outs stand apart in the source and are kept apart here.

Legend:
PPARγ-RXRα heterodimer = molecular target: T1, PPARγ-RXRα heterodimer (Homo sapiens, UniProt P37231); assay: PPARγ-RXRα heterodimer ligand activity, luciferase reporter in PPARγ:RXRα:4ERPP/CHO-K1 cells (Test Example 3); assay type: cell-based; conditions: 18-48 hours, concentration for 50% of the maximum fold induction
T1 construct: expressed in transfected cells; host or cells: CHO-K1
T1 sequence (P37231 1-477 isoform P37231-2): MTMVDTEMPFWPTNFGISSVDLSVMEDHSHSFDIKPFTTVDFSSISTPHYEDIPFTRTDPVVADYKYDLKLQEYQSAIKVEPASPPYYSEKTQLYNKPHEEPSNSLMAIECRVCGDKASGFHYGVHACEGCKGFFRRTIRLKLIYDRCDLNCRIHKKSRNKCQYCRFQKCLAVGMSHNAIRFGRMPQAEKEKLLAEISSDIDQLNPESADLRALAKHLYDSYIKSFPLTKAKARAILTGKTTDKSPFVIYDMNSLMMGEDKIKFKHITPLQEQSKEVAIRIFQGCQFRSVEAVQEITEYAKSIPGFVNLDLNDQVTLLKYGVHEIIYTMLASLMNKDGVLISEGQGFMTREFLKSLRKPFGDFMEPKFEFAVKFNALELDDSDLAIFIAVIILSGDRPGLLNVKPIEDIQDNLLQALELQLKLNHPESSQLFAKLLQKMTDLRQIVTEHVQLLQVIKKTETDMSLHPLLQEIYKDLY
T1 sequence (P19793 1-462 partner): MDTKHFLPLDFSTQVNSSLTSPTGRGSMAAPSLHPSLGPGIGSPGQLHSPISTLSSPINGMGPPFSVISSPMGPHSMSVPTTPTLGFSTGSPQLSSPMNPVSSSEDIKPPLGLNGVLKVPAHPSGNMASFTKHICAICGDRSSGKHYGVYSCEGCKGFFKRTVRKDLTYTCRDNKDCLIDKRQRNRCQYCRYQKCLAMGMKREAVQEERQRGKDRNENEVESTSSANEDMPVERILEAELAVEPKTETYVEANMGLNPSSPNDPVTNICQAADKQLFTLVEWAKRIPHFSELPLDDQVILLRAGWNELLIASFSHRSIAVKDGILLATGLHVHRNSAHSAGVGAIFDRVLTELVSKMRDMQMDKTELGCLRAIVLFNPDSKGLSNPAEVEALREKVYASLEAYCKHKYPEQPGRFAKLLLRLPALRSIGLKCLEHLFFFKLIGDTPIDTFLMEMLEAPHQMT
Procedure: A PPARγ: RXRα: 4ERPP/CHO-K1 cells obtained in Reference Example 8a described later were cultured in HAM F12 medium (produced by Life Technologies, Inc., USA) containing 10% Fetal bovine serum (produced by Life Technologies, Inc., USA) and then inoculated to a 96-well white plate (produced by Corning Costar Corporation, USA) at the density of 2×10^4 cells/well, and cultured in a CO2 gas incubator at 37° C. overnight.
After removing the medium from 96 well white plate, 80 μl of HAM F12 medium containing 0.1% fatty acid-free bovine serum albumin (BSA) and 20 μl of test compound were added, which was cultured in a CO2 gas incubator at 37° C. for 18-48 hours. After removing the medium, 40 μl of PIKKAGENE 7.5 (produced by Wako Pure Chemical Industries, Ltd.) diluted twice with HBSS (HANKS' BALANCED SALT SOLUTION)(produced by BIO WHITTAKER Inc., USA), was added. After stirring, the luciferase activity was determined using 1420 ARVO Multilabel Counter (produced by PerkinElmer Inc., USA).
A fold induction was calculated based on the luciferase activity of each test compound by taking the luciferase activity in the non-treatment group as 1. The values of the test compound concentration and the fold induction were analyzed using PRISM (produced by GraphPad Software Inc. USA) to calculate the EC50 values, the effective concentration of a test compound for 50% of the maximum fold induction.
After a CHO-K1 cell cultured in a 150 cm^2 cell culture flask (750 ml)(produced by Corning Costar Corporation, USA) containing HAM F12 medium (produced by Life Technologies, Inc., USA) supplemented with 10% Fetal Bovine Serum (produced by Life Technologies, Inc., USA) was scraped by treating with 0.5 g/L trypsin-0.2 g/L EDTA (ethylenediaminetetraacetic acid) (produced by Life Technologies, Inc., USA), the cell was washed with PBS (phosphate-buffered saline) (produced by Life Technologies, Inc., USA), centrifuged (1000 rpm, 5 minutes), and then suspended in PBS. Subsequently, a DNA was introduced into the cell under the condition shown below using GENE PULSER (produced by Bio-Rad Laboratories, USA).
Namely, to a cuvette having a 0.4 cm gap, added were 8×10^6 cells and 10 μg of plasmid pVgRXR2-hPPARγ obtained in Reference Example 7a and 10 μg of reporter plasmid pGL3-4ERPP-TK neo obtained in Reference Example 5a, which was subjected to electroporation at the voltage of 0.25 kV under the capacitance of 960 μF. Subsequently, the cell was transferred into a HAM F12 medium containing 10% Fetal Bovine Serum and cultured for 24 hours and then the cell was scraped again and centrifuged, and then suspended in HAM F12 medium containing 10% Fetal Bovine Serum supplemented with 500 μg/ml of GENETICIN (produced by Life Technologies, Inc., USA) and 250 μg/ml of ZEOCIN (produced by Invitrogen, USA). The obtained suspension was diluted to the density of 10^4 cells/ml and inoculated to a 96-well plate (produced by Corning Costar Corporation, USA), which was cultured in a CO2 gas incubator at 37° C., whereby obtaining a GENETICIN- and ZEOCIN-resistant transformant.
Subsequently, after the transformant cell line thus obtained was cultured in a 24-well plate (produced by Corning Costar Corporation, USA), selected was a cell line in which the luciferase was expressed and induced, i.e., PPARγ:RXRα:4ERPP/CHO-K1 cell by addition of 10 μM of pioglitazone hydrochloride.

KKAY mice = assay: Hypoglycemic and hypolipidemic actions in mice (Test Example 1); assay type: in vivo; conditions: Mus musculus, po, 96 h, 0.005% in powdery diet, four days, non-treated group taken as 100%
Procedure: Test compounds were mixed in a powdery diet (CE-2, Japan Clea) at the concentration of 0.005%, and freely given to KKAY mice (9 to 12 weeks old, 5 mice in a group), a model of obese and non-insulin dependent diabetes (type 2 diabetes), for four days. During this period, water was given freely. Blood was sampled from orbital venous plexus, and glucose and triglyceride levels in plasma separated from blood were determined enzymatically using L type Wako Glu2 (Wako Pure Chemical Industries, Ltd.) or L type Wako TG·H (Wako Pure Chemical Industries, Ltd.), respectively.
In the table, “hypoglycemic action (%)” means the rate of decrease (%) in the blood glucose level of the treated group when the blood glucose level of the non-treated group is taken as 100%. In addition, the “hypolipidemic action (%)” means the rate of decrease (%) in the blood triglyceride level of the treated group when the blood triglyceride level of the non-treated group is taken as 100%.

[1] = rate of decrease in blood glucose level, read-out: Hypoglycemic action (%)
[2] = rate of decrease in blood triglyceride level, read-out: Hypolipidemic action (%)

## COc1cccc(CC(=O)O)c1OCCCc1cn(-c2ccc(C)cn2)nc1C(C)C [Example 272, (3-methoxy-2-{3-[3-isopropyl-1-(5-methyl-2-pyridyl)-1H-pyrazol-4-yl]propoxy}phenyl)acetic acid]
PPARγ-RXRα heterodimer
  EC50: 0.05 µM
other
  melting point: 132 to 133 °C
KKAY mice; [1]
  inhibition in vivo at 0.005 % in diet: 48%
KKAY mice; [2]
  inhibition in vivo at 0.005 % in diet: 69%

## CCOc1cccc(CC(=O)O)c1OCCCc1cn(-c2ccc(C(F)(F)F)cn2)nc1C(CC)CC [Example 221, [3-ethoxy-2-(3-{3-(1-ethylpropyl)-1-[5-(trifluoromethyl)-2-pyridyl]-1H-pyrazol-4-yl}propoxy)phenyl]acetic acid]
PPARγ-RXRα heterodimer
  EC50: 0.012 µM
other
  melting point: 83 to 84 °C
KKAY mice; [1]
  inhibition in vivo at 0.005 % in diet: 46%
KKAY mice; [2]
  inhibition in vivo at 0.005 % in diet: 21%

## CC(C)c1nn(-c2ccc(C(F)(F)F)cn2)cc1CCCOc1c(Cl)cccc1CC(=O)O [Example 239, [3-chloro-2-(3-{3-isopropyl-1-[5-(trifluoromethyl)-2-pyridinyl]-1H-pyrazol-4-yl}propoxy)phenyl]acetic acid]
PPARγ-RXRα heterodimer
  EC50: 0.035 µM
other
  melting point: 141 to 142 °C
KKAY mice; [1]
  inhibition in vivo at 0.005 % in diet: 42%
KKAY mice; [2]
  inhibition in vivo at 0.005 % in diet: 65%

## CCOc1cccc(CC(=O)O)c1OCCCc1cn(-c2ccc(C(F)(F)F)cn2)nc1C1CCCCC1 [Example 306, [2-(3-{3-cyclohexyl-1-[5-(trifluoromethyl)-2-pyridinyl]-1H-pyrazol-4-yl}propoxy)-3-ethoxyphenyl]acetic acid]
PPARγ-RXRα heterodimer
  EC50: 0.017 µM
other
  melting point: 156 to 157 °C

## COc1ccc(-n2cc(CCCOc3c(CC(=O)O)cccc3OC)c(C(C)C)n2)nn1 [Example 277, (3-methoxy-2-{3-[1-(6-methoxypyridazin-3-yl)-3-isopropyl-1H-pyrazol-4-yl]propoxy}phenyl)acetic acid]
PPARγ-RXRα heterodimer
  EC50: 0.036 µM
other
  melting point: 124 to 125 °C

## CCCc1nn(-c2ccc(C(F)(F)F)cn2)cc1CCCOc1c(CC)cccc1CC(=O)O [Example 229, [3-ethyl-2-(3-{3-propyl-1-[5-(trifluoromethyl)-2-pyridinyl]-1H-pyrazol-4-yl}propoxy)phenyl]acetic acid]
PPARγ-RXRα heterodimer
  EC50: 0.021 µM
other
  melting point: 146 to 147 °C
KKAY mice; [1]
  inhibition in vivo at 0.005 % in diet: 41%
KKAY mice; [2]
  inhibition in vivo at 0.005 % in diet: 49%

## COc1cccc(CC(=O)O)c1OCCCc1cn(-c2ccc([N+](=O)[O-])cn2)nc1C(C)C [Example 270, (3-methoxy-2-{3-[3-isopropyl-1-(5-nitro-2-pyridyl)-1H-pyrazol-4-yl]propoxy}phenyl)acetic acid]
PPARγ-RXRα heterodimer
  EC50: 0.099 µM
other
  melting point: 161 to 162 °C

## CC(C)c1nn(-c2ccc(C(F)(F)F)cn2)cc1CCCOc1c(Br)cccc1CC(=O)O [Example 235, [3-bromo-2-(3-{3-isopropyl-1-[5-(trifluoromethyl)-2-pyridinyl]-1H-pyrazol-4-yl}propoxy)phenyl]acetic acid]
PPARγ-RXRα heterodimer
  EC50: 0.026 µM
other
  melting point: 146 to 147 °C
KKAY mice; [1]
  inhibition in vivo at 0.005 % in diet: 43%
KKAY mice; [2]
  inhibition in vivo at 0.005 % in diet: 64%

## CCC(CC)c1nn(-c2ccc(C(F)(F)F)cn2)cc1CCCOc1ccccc1CC(=O)O [Example 215, [2-(3-{3-(1-ethylpropyl)-1-[5-(trifluoromethyl)-2-pyridyl]-1H-pyrazol-4-yl}propoxy)phenyl]acetic acid]
PPARγ-RXRα heterodimer
  EC50: 0.02 µM
other
  melting point: 65 to 66 °C
KKAY mice; [1]
  inhibition in vivo at 0.005 % in diet: 50%
KKAY mice; [2]
  inhibition in vivo at 0.005 % in diet: 45%

## COc1cccc(CC(=O)O)c1OCCCc1cn(-c2ccc(C(F)(F)F)cn2)nc1-c1ccccc1 [Example 196]
PPARγ-RXRα heterodimer
  EC50: 0.042 µM
other
  melting point: 134 to 135 °C

## CCCCc1nn(-c2ccc(C(F)(F)F)cn2)cc1CCCOc1nn(CC)cc1CC(=O)O [Example 334, [3-(3-{3-butyl-1-[5-(trifluoromethyl)-2-pyridinyl]-1H-pyrazol-4-yl}propoxy)-1-ethyl-1H-pyrazol-4-yl]acetic acid]
PPARγ-RXRα heterodimer
  EC50: 0.074 µM
other
  melting point: 109 to 110 °C

## COc1cccc(CC(=O)O)c1OCCCc1cn(-c2ccc(F)cn2)nc1C(C)C [Example 273, (2-{3-[1-(5-fluoro-2-pyridyl)-3-isopropyl-1H-pyrazol-4-yl]propoxy}-3-methoxyphenyl)acetic acid]
PPARγ-RXRα heterodimer
  EC50: 0.09 µM
other
  melting point: 125 to 126 °C

## CCC(CC)c1nn(-c2ccc(C(F)(F)F)cn2)cc1CCCOc1c(F)cccc1CC(=O)O [Example 214, [2-(3-{3-(1-ethylpropyl)-1-[5-(trifluoromethyl)-2-pyridyl]-1H-pyrazol-4-yl}propoxy)-3-fluorophenyl]acetic acid]
PPARγ-RXRα heterodimer
  EC50: 0.018 µM
other
  melting point: 102 to 103 °C
KKAY mice; [1]
  inhibition in vivo at 0.005 % in diet: 44%
KKAY mice; [2]
  inhibition in vivo at 0.005 % in diet: 52%

## COc1cccc(CC(=O)O)c1OCCCc1cn(-c2ccc(Br)cn2)nc1C(C)C [Example 218, (2-{3-[1-(5-bromo-2-pyridyl)-3-isopropyl-1H-pyrazol-4-yl]propoxy}-3-methoxyphenyl)acetic acid]
PPARγ-RXRα heterodimer
  EC50: 0.051 µM
other
  melting point: 152 to 153 °C
KKAY mice; [1]
  inhibition in vivo at 0.005 % in diet: 34%
KKAY mice; [2]
  inhibition in vivo at 0.005 % in diet: 43%

## CCCCc1nn(-c2ccc(C(F)(F)F)cn2)cc1CCCOc1c(CC(=O)O)cccc1OC [Example 197, [2-(3-{3-butyl-1-[5-(trifluoromethyl)-2-pyridyl]-1H-pyrazol-4-yl}propoxy)-3-methoxyphenyl]acetic acid]
PPARγ-RXRα heterodimer
  EC50: 0.022 µM
other
  melting point: 121 to 122 °C
KKAY mice; [1]
  inhibition in vivo at 0.005 % in diet: 45%
KKAY mice; [2]
  inhibition in vivo at 0.005 % in diet: 65%
